Patent US20260209304A1, “INSULIN RECEPTOR ANTAGONIST” (The Board of Trustees of the Leland Stanford Junior …, priority 2022, published 2026)
Positions of bridges follow the written chain, without caps; N, C: chain ends. Chains are numbered I, II in the order given. No end group written: not given here.

Legend:
insulin receptor (IR) = insulin receptor (IR) (Homo sapiens, UniProt P06213); assay: Binding affinity of insulin-core mutants relative to the A13R mutation
human insulin receptor [1] = target: T1, human insulin receptor (Homo sapiens, UniProt P06213); assay: Cell-based pAKT (Ser473) assay in NIH 3T3 cells overexpressing human insulin receptor; design: expressed in transfected cells; host or cells: NIH 3T3 cell line derived from IGF-1R knockout mice (gift from A. Morrione, Thomas Jefferson University)
Description: All the values are shown as mean±SD (n=4). EC50 and IC50 values were calculated by Prism 9 (GraphPad Software, California, USA) with nonlinear regression curve fitting of dose-response asymmetric equation.
Cell-based pAKT and phosphor-IR-beta Assays. The bioactivities of the analogs were evaluated through a cell-based pAKT (Ser473) assay or phospho-IR-beta (Tyr1150/1151) assay. Endogenous levels of pAKT or phosphor-IR-beta were measured in a human insulin receptor overexpressed NIH 3T3 cell line, derived from IGF-1R knockout mice (a generous gift from A. Morrione, Thomas Jefferson University). Cells were cultured in DMEM (Gibco) with 10% fetal bovine serum (FBS, Gibco), 100 U/mL penicillin-streptomycin (Gibco), 2 mg/mL puromycin (Thermo Fisher Scientific), and 1 mg/mL normocin (InvivoGen) at 37° C. under 5% CO2. For the assays, 30,000 cells per well and 100 μl per well, were plated in a 96-well plate with culture media containing 1% FBS. 20 hours later, the media was removed and 50 μl of culture media with different concentrations of native insulin or analog was pipetted into each well. […] After 4 hours of incubation, the plate was read in a SpectraMax iD5 plate reader (Molecular Devices) and the data were processed according to the manufacturer's protocol. […]

human insulin receptor [2] = target: T1, human insulin receptor; assay: cell-based or functional assay

Molecule	Agonist Activity (nM), cell-based pAKT assay (human insulin receptor [2]) [nM]	Antagonist Activity (nM), cell-based pAKT assay (human insulin receptor [2]) [nM]	binding affinity relative to the A13R mutation (insulin receptor (IR))	EC50 (human insulin receptor [1]) [nM]
I: FVNQHLCGSELVEALYLVCGERGFFYTPK / II: GIVEQCCHRICSLYQLENYCGGSLPETGG (disulfide I:7-II:7, I:19-II:20, II:6-II:11) [Ins-AC-10-9]			increased	0.562
I: GIVEQCCHRICSLYQLENYCGGSLPETGGGSLEEEWAQIQSEVWGRGSPSY / II: FVNQHLCGSELVEALYLVCGERGFFYTPK (disulfide I:6-I:11, I:7-II:7, I:20-II:19) [Ins-AC-10-11]			increased	0.0115

Continued, in another order:

Agonist Activity (nM), cell-based pAKT assay (human insulin receptor [2]) [nM]	Antagonist Activity (nM), cell-based pAKT assay (human insulin receptor [2]) [nM]	Molecule	binding affinity relative to the A13R mutation (insulin receptor (IR))	EC50 (human insulin receptor [1]) [nM]
0.562		Ins-AC-10-9 (designed binder) chain 1: GIVEQCCHRICSLYQLENYCGGSLPETGG chain 2: FVNQHLCGSELVEALYLVCGERGFFYTPK		
0.0115	0.5	Ins-AC-10-11 (designed binder) chain 1: GIVEQCCHRICSLYQLENYCGGSLPETGGGSLEEEWAQIQSEVWGRGSPSY chain 2: FVNQHLCGSELVEALYLVCGERGFFYTPK		
